Read-outs that look alike come from different tables or passages of the source. Bounds are passed on as bounds.

The values below come from patent US20260070911A1, “INHIBITORS OF TAM RECEPTORS” (National Health Research Institutes, priority 2022, published 2026).

One test addresses T1, MERTK (Homo sapiens, UniProt Q12866).
T1 sequence (Q12866 21-999): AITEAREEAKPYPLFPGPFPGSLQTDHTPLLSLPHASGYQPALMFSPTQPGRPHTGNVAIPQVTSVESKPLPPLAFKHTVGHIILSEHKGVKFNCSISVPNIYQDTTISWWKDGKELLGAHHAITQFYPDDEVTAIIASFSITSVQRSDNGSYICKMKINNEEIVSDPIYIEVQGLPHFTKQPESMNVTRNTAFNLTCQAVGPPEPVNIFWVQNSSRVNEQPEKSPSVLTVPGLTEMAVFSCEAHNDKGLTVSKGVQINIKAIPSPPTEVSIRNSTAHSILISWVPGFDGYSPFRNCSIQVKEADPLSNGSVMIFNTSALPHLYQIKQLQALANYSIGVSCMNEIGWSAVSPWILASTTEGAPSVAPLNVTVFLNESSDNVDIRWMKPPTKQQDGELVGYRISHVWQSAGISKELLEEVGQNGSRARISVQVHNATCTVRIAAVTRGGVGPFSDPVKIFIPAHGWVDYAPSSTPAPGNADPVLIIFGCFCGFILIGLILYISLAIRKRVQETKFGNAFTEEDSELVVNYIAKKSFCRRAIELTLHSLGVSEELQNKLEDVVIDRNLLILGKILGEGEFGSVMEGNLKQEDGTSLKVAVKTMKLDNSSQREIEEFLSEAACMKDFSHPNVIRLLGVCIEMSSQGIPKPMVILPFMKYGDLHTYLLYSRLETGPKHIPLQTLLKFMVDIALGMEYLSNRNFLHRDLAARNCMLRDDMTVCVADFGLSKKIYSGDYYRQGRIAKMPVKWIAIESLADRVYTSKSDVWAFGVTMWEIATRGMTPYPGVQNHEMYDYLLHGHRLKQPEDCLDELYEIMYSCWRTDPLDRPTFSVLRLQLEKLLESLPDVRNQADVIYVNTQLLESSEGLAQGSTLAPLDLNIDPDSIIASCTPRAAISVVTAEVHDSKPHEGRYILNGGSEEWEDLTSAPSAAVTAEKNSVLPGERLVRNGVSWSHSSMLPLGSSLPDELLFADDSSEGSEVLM
Briefly: MERTK enzymatic assay (Kinase Glo). To be noted: ATP 12 μM. Type of test: biochemical. Background: Kinase-Glo measures the ATP left after a reaction by luminescence.

Another test deals with T2, AXL (Homo sapiens, UniProt P30530).
T2 sequence (P30530 26-894): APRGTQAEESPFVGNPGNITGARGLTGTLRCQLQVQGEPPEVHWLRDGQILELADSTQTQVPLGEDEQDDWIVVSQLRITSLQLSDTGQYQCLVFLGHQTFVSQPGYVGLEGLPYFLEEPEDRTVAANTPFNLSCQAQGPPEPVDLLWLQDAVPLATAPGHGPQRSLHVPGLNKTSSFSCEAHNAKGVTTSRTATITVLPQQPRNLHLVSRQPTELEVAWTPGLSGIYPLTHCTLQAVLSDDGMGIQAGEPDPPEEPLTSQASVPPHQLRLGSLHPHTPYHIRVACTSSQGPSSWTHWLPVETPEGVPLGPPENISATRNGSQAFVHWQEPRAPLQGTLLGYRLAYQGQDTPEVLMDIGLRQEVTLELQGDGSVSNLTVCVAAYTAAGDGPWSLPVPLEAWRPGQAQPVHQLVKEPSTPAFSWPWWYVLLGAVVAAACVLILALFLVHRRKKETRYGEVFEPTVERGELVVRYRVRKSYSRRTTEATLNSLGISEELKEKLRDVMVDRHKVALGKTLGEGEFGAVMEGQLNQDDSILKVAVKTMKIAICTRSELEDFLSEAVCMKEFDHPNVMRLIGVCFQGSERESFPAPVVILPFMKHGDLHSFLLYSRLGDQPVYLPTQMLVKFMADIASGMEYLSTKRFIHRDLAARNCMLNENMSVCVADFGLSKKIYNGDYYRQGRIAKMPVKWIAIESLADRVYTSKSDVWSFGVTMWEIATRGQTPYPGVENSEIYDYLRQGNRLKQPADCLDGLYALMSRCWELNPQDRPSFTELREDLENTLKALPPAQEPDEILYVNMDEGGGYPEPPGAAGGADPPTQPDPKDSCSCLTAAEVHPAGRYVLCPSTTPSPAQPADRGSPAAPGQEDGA
The test is described as follows: AXL enzymatic assay (ADP-Glo). Type of test: biochemical. As to conditions: ATP 50 μM. On the technique in general: In ADP-Glo the light output rises with the ADP produced.

The next test has as its target T3, TYRO3 (Homo sapiens, UniProt Q06418).
T3 sequence (Q06418 41-890): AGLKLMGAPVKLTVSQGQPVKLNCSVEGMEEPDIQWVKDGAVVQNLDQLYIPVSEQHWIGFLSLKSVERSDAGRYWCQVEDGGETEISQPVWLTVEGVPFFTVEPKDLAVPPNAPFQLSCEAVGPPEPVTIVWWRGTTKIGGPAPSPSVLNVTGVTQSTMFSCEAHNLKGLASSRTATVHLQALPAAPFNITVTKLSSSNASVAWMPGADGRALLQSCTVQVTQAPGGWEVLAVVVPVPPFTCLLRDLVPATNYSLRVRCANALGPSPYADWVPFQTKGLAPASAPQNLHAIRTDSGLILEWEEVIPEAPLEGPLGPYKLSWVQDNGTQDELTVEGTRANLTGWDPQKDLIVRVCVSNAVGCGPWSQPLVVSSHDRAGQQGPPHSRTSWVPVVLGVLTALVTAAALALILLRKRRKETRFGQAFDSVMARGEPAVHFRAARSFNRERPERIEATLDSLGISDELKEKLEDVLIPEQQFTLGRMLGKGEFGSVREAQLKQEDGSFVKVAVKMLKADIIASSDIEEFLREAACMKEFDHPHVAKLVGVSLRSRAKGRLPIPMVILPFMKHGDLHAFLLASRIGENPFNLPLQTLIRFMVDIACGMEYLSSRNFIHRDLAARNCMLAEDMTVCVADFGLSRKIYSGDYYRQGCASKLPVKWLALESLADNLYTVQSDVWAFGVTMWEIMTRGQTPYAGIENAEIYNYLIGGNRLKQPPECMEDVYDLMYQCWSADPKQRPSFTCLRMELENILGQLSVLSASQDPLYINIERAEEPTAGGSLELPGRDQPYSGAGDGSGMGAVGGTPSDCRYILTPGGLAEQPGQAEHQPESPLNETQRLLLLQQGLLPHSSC
Briefly: TYRO3 enzymatic assay (ADP-Glo). Type of test: biochemical. To be noted: ATP 50 μM. The protocol:
A study was conducted to compare exemplary compounds of formula (I) in inhibiting TAM activities, including MERTK, AXL, and TYRO3. An enzymatic assay was used in the study. A purified Kinase (i.e., MERTK, AXL, or TYRO3) was incubated with a compound or DMSO (control) for around 15 minutes in an assay buffer (25 mM Tris pH 7.4, 10 mM MgCl2, 4 mM MnCl2, 2 mM DTT, 0.01% BSA, 0.02% TritonX-100, 0.01% Brij35 and 0.5 mM Na3VO4 for MERTK; 40 mM Tris pH 7.4, 20 mM MgCl2, 2 mM DTT, 0.01% BSA and 0.5 mM Na3VO4 for AXL; and 25 mM Tris pH 7.4, 10 mM MgCl2, 4 mM MnCl2, 2 mM DTT, 0.01% BSA and 0.5 mM Na3VO4 for TYRO3). […] The mixture was incubated for 3 hours at 30° C. The luminescence was calculated to determine the kinase activity using a Kinase Glo assay kit for MERTK and an ADP-Glo Kinase assay kit for AXL and TYRO3 following the manufacture's instructions (Promega). Inhibition rates and half maximal inhibitory concentration (IC50) values were calculated. High percentage inhibition rates and low IC50 values are indicatives of high potency of the test compound.

The next test has as its system MER/AXL. Briefly: Dual MER/AXL inhibition (enzymatic). The class given is biochemical. As to conditions: class for both MER and AXL.
For the next test, the system named is MC38 murine colon tumor. The test is described as follows: Immune modulatory activity in MC38 murine colon tumor model. Type of test: in vivo, C57BL/6J mice. To be noted: 50 mg/kg orally twice per day for five days. As for the experimental part: Female C57BL/6J mice between 8-10 weeks of age were used. Murine colon tumor MC38 cells were detected as free of Mycoplasma spp prior to injection into animals. MC38 cells at 10^5 cells per mouse in 100 μL culture medium were implanted subcutaneously into the left flank region of mice with a 25⅝-gauge needle (n=5-6 animals per group). […] Treatments were initiated after randomization with inclusion of tumors at approximately 150 mm^3. Tumor growths were measured with an electronic caliper and volumes are calculated as L×W×W/2. Tumor size and animal body weight were measured twice a week after tumor cell inoculation. All experiments were conducted in accordance with the protocols approved by National Health Research Institutes' Institutional Animal Care and Use Committee.
Ten days after the treatment, the tumor cells and spleen cells in the mice were collected to study effect of this compound on the immune cells, i.e., tumor-associated macrophages and T cells. Briefly, tumor and spleen from vehicle control and Compound 11 were harvested and isolated into single cells. Single cell suspension were pre-incubated with mouse Fc receptor blocker before staining with appropriate antibody conjugate for Cd45, Cd3, Cd4, Cd8, F4/80, Cd11b, Cd86, AXL, MERTK and analyzed by flow cytometry to quantify the accumulation of immune cells including Cd4 (Cd3^+Cd4^+), Cd8 (Cd3^+Cd8^+), macrophages (Cd11b^+F4/80^+), tumor associated macrophage (M2, Cd11b^+F4/80^+Cd206^+), classical macrophage (M1, Cd11b^+F4/80+/Cd86^+) populations. For intracellular staining of analysis of tumor-associated macrophage marker Cd206 expression, cells were fixed by using Cytofix/Cytoperm™ kit (BD Biosciences, Franklin Lakes, New Jersey) after surface marker staining and then stain with anti-mouse Cd206 antibody conjugate. Live/dead fixable dye were used to exclude non-viable cells from the analyses.

In the next test the test system is MC-38 murine colon tumor. Briefly: In vivo activity against colon tumor (MC38). As to conditions: day 17 after the treatment; 50 mg/kg orally twice a day for 5 days; control 2000 mm^3. Also noted: species or system C57BL/6J mice. The protocol: Compound 11 was evaluated for its in vivo efficacy in treating colon tumor. Female C57BL/6J mice between 8-10 weeks of age were used. Murine colon tumor MC38 cells were detected as free of Mycoplasma spp prior to injection into animals. MC38 cells at 10^5 cells per mouse in 100 μL culture medium were implanted subcutaneously into the left flank region of mice with a 25⅝-gauge needle (n=8 animals per group). […] Treatments were initiated after randomization with inclusion of tumors at approximately 50 mm^3.
Control animals were orally administered with vehicle only. Tumor growths were measured with an electronic caliper and volumes were calculated as L×W×W/2. Tumor size and animal body weight were measured twice a week after tumor cell inoculation. After the treatment, tumor volumes and body weight changes were measured.

In another test the test system is MDA-MB-231 TNBC cells. Briefly: In vivo activity against breast cancer (MDA-MB-231 xenograft). On the set-up: species or system NOD/SCID mice. To be noted: day 35 after the treatment, from 150 mm^3 (control 600 mm^3). As for the experimental part:
Compound 11 was further evaluated for its in vivo efficacy in treating breast cancer. MDA-MB-231 TNBC cell lines were used. Prior to injection into animals, the cancer cells were detected as free of Mycoplasma spp. Five million MDA-MB-231 cells in culture medium and matrigel (1:1, v/v) were injected subcutaneously into the left flank region of the NOD/SCID mice (n=8 animals per group). Treatments were initiated after randomization with inclusion of tumors at approximately 150 mm^3. The compound was prepared using 10% DMA: 40% PEG400:50% (1% CMC) (v/v/v).
Each group was administered orally twice a day for five days. Control animals were orally administered with vehicle only. Tumor growths were measured with an electronic caliper and volumes were calculated as L×W×W/2. Tumor size and animal body weight were measured twice a week after tumor cell inoculation.

The mark [1] stands for this setting: purified kinase, read-out: MER Enzymatic Inhibition (%).
The mark [2] stands for this setting: purified kinase, read-out: AXL Enzymatic Inhibition (%).

Turning to `Nc1cccc(-c2c[nH]c3ncnc(Oc4ccc(NC(=O)c5cccn(-c6ccc(F)cc6)c5=O)cc4)c23)c1` [Compound 3], the IC50 was 11.6 nM at MERTK (read-out: IC50 MERTK); less than 20 nM on MERTK (setting [1]); 12.9 nM on AXL (read-out: IC50 AXL); less than 20 nM on AXL (setting [2]); 18.3 nM on TYRO3; less than 20 nM in the test on MER/AXL.
As to `CC(=O)Nc1cccc(-c2c[nH]c3ncnc(Oc4ccc(NC(=O)c5cccn(-c6ccc(F)cc6)c5=O)cc4)c23)c1` [Compound 4], the IC50 on MERTK (read-out: IC50 MERTK) is 22.9 nM; at MERTK (setting [1]) it was 20 to 100 nM; on AXL (read-out: IC50 AXL) it was 10.5 nM; on AXL (setting [2]) it was less than 20 nM; against TYRO3 it was 15.6 nM; in the test with MER/AXL, 20 to 100 nM.
In the case of `Cn1cc(-c2oc3ncnc(Oc4ccc(NC(=O)c5cccn(-c6ccc(F)cc6)c5=O)cc4)c3c2-c2cccc(N)c2)cn1` [Compound 11, N-(4-{[5-(3-aminophenyl)-6-(1-methyl-1H-pyrazol-4-yl)furo[2,3-d]pyrimidin-4-yl]oxy}phenyl)-1-(4-fluorophenyl)-2-oxo-1,2-dihydropyridine-3-carboxamide], in the test on MC38 murine colon tumor (decreased from 7%), the “expression of MERTK in CD4+ T cells (spleen)” value is 3%. The “level of M2-phenotype macrophages in the tumor cells” value in the test on MC38 murine colon tumor (decreased from 10%) amounted to 5%. Further, the “expression of AXL in CD8+ T cells (spleen)” value in the test with MC38 murine colon tumor (decreased from 13%) turned out to be 5%. For the same molecule, the “level of macrophages in the tumor cells” value in the test with MC38 murine colon tumor (decreased from 18%) was found to be 13%. Further, the “expression of MERTK in CD8+ T cells (spleen)” value with MC38 murine colon tumor (decreased from 32%) is reported as 20%. Moreover, in the test on MC38 murine colon tumor (decreased from […]), the “expression of AXL in CD4+ T cells (spleen)” value is on record as 0.7%. The “level of CD4+ T cells in the spleen cells” value in the test on MC38 murine colon tumor (increased from 5%) came out at 10%. In addition, the “level of CD8+ T cells in the spleen cells” value in the test on MC38 murine colon tumor (increased from 18%) is reported as 28%. The “level of total T cells in the spleen cells” value in the test on MC38 murine colon tumor (increased from 30%) was 43%. In addition, the tumor size in the test on MC38 murine colon tumor (10 days after treatment, from 200 mm^3 (vehicle 1000 mm^3)) worked out at 350 mm^3. For the same molecule, the tumor volume in the test with MC-38 murine colon tumor is reported as 300 mm^3; in the test on MDA-MB-231 TNBC cells (25 mg/kg orally twice a day for five days), 300 mm^3; in the test on MDA-MB-231 TNBC cells (50 mg/kg orally twice a day for five days), 220 mm^3.
